In patent US20110160146A1, “Conjungation of Small Molecules to Octaarginine Transporters for Overcoming Multi-Drug Resistance” (National Institute of Health (NIH), priority 2008, published 2011):

Tests used:
MCF-7 = assay: cells; settings: Homo sapiens, MCF7, read-out: IC50 concentration
Method: (§1) After 72 hours, the cytotoxicity of the relevant compound was determined by an MTT based assay.
(§2) Cell Lines; SKOV-3 cells were obtained from ATCC; UCI-101 and UCI-107 cell lines were obtained from Drs. P. DiSaia and A. Manetta, University of California; MCF-7 and MCF-7-Pgp were obtained from Dr. D. Piwnica-Worms, Washington University; OVCA429, OVCA433 and the taxane resistant derivatives of these cells (OVCA429T, OVCA429TxT, OVCA433T and OVCA433TxT) were obtained from Dr. B. Sikic, Stanford University. All cells were grown in DMEM with 10% FBS.
(§3) Cell Cytotoxicity Assay. The cytotoxicity of relevant compounds was determined by IC50 assay. Cells were seeded overnight into 96-well plates, and then incubated with a serial dilution of the indicated compound for 20 min, before washing twice with fresh media, and incubation at 37° C. for 72 hr in drug-free media. The IC50 values were determined as the concentration of compound required to inhibit the viability of the cell layer by 50% relative to untreated, and cell-free control wells (100 and 0% viability respectively) determined from semi-logarithmic dose response curves. […] Bioluminescence was determined using an IVIS 50 system (Caliper Life Sciences, Alameda, Calif.). Each compound and dilution was tested in triplicate per experiment, with each experiment reproduced three times.

SKOV-3 = assay: cells; settings: Homo sapiens, SK-OV-3, read-out: IC50 concentration
Method: as §1, §2, §3

OVCA 429 = assay: cells; settings: Homo sapiens, OVCA429, read-out: IC50 concentration
Method: as §1, §2, §3

OVCA 433 = assay: cells; settings: Homo sapiens, OVCA433, read-out: IC50 concentration
Method: as §1, §2, §3

UCI-101 luc = assay: cells; settings: Homo sapiens, UCI101, read-out: IC50 concentration
Method: as §1, §2, §3

UCI-107 luc = assay: cells; settings: Homo sapiens, read-out: IC50 concentration
Method: as §1, §2, §3

[1] = tested on: UCI-101 tumor cells expressing luciferase; assay: Mouse tumor model, UCI-101 intraperitoneal xenograft; type: in vivo, mice; settings: 10 mg/kg dose
Excerpt: (a) 1×10^7 UCI-101 tumor cells expressing luciferase were implanted into the peritoneal cavity of athymic nu/nu mice 7 days prior to treatment. […] For the purpose of these experiments TFA^− counteranions on both conjugates were exchanged to C. Subsequent tumor burden was followed by bioluminescence imaging (n=8/group). […] Tumor burden was followed by bioluminescence imaging. […] (n=8/group).
Mouse Tumor Models: Tumor xenografts were created by intraperitoneal injection of female athymic CD1 nu/nu or SCID mice with 1×10^7 cells. Versions of UCI-101, OVCA429 or OVCA429T cells were used expressing Firefly luciferase. […] Mice were then treated with three intraperitoneal injections (5 days apart) of 5 or 10 mg/kg taxol or equimolar dose equivalents of the taxol derivatives, or PBS as a control. For the purpose of these experiments TFA^− counteranions on both conjugates were exchanged to C. Subsequent tumor burden was followed by BLI. Once tumor burden reached 1×10^8 photons/sec/mouse the mice were euthanized.
Comparisons of survival (Kaplan-Meier) curves were made by the Wilcoxon-Rank test. Statistical significance was determined as p<0.05.

MCF-7-pgp = assay: Cell cytotoxicity assay (IC50), MCF-7-pgp; settings: Homo sapiens, read-out: IC50 concentration
Method: as §1
(§4) Within the panel of human cancer cells, there were three sets of related sensitive and resistant cell lines, the latter based wholly or in part on Pgp-mediated efflux. These resistant lines were either created through stable transfection of MCF-7 cells with Pgp (MCF-7-Pgp), or by selection through exposure of OVCA429 and OVCA433 cells to taxol (OVCA429T and OVCA433T)^19 or taxotere (OVCA429TxT and OVCA433TxT), creating a complex MDR phenotype including Pgp upregulation.
as §2, §3

OVCA 433TxT = assay: cells; settings: Homo sapiens, read-out: IC50 concentration
Method: as §1, §4, §2, §3

OVCA 433T = assay: cells; settings: Homo sapiens, read-out: IC50 concentration
Method: as §1, §4, §2, §3

OVCA 429TxT = assay: cells; settings: Homo sapiens, read-out: IC50 concentration
Method: as §1, §4, §2, §3

OVCA 429T = assay: cells; settings: Homo sapiens, read-out: IC50 concentration
Method: as §1, §4, §2, §3

IC50 (MCF-7): 171 nM | IC50 (SKOV-3): 29 nM | IC50 (OVCA 429): 147 nM | IC50 (OVCA 433): 294 nM | IC50 (UCI-101 luc): 246 nM | IC50 (UCI-107 luc): 320 nM | IC50 (OVCA 433TxT): 12400 nM | IC50 (OVCA 433T): 6180 nM | IC50 (OVCA 429TxT): 2520 nM | IC50 (OVCA 429T): 15800 nM
Structure (SMILES): CC(=O)O[C@H]1C(=O)[C@@]2(C)[C@H]([C@H](OC(=O)c3ccccc3)[C@]3(O)C[C@H](OC(=O)[C@H](O)[C@@H](NC(=O)c4ccccc4)c4ccccc4)C(C)=C1C3(C)C)[C@]1(OC(C)=O)CO[C@@H]1C[C@@H]2O [compound 1, Taxol, reference compound]
complete responses [1]: 12.5% | IC50 (MCF-7-pgp): 867 nM
